Test systems include SK-MEL-2 melanoma; SNB-19 CNS; LOX IMVI melanoma; ACHN renal; 786-0 renal; M14 melanoma; HOP-62 NSCLC; RXF 393 renal.
Holding throughout (assay): inhibition of tumour cell growth, NCI panel, 48 h

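Test compounds were applied to cells in 96-well plates for 48 hours at 5 doses. TGI: concentration producing complete growth inhibition.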

On to `C[n+]1c(N)n(C(=O)OCc2ccccc2)c(=O)c2c1ncn2C(=O)OCc1ccccc1`, for which the TGI in the assay with SK-MEL-2 melanoma, in the assay with SNB-19 CNS, in the assay with LOX IMVI melanoma, with ACHN renal, in the assay on 786-0 renal and with M14 melanoma was > 100 µM in each case. Further, the TGI in the assay on HOP-62 NSCLC was > 100 µM.
As for `COC(=O)Cc1nc2ccccc2o1`, the TGI in the assay on RXF 393 renal, with SK-MEL-2 melanoma, in the assay on SNB-19 CNS, with ACHN renal, with 786-0 renal and in the assay on M14 melanoma was > 100 µM in each case. Also, in the assay with HOP-62 NSCLC, the TGI is > 100 µM.
Turning to `Cn1cc(NC(=O)c2cc(NC(=O)CCCCCCC(=O)Nc3cc(C(=O)Nc4cc(C(=O)NCCC(=N)N)n(C)c4)n(C)c3)cn2C)cc1C(=O)NCCC(=N)N`, the TGI was 31.4 µM with RXF 393 renal; > 100 µM in the assay with SNB-19 CNS; 18.5 µM in the assay on LOX IMVI melanoma; 54 µM with ACHN renal; 33.8 µM in the assay with 786-0 renal; 33.9 µM in the assay with M14 melanoma.
As for `Nc1ccc(C(=O)N/C(=C\c2cccc([N+](=O)[O-])c2)c2nc3c4c(ccc3[nH]2)C(=O)c2ccccc2C4=O)cc1`, the TGI is 57.7 µM with RXF 393 renal; > 100 µM with SK-MEL-2 melanoma; > 100 µM in the assay with SNB-19 CNS; > 100 µM in the assay with LOX IMVI melanoma; > 100 µM in the assay with 786-0 renal; > 100 µM in the assay with M14 melanoma. Also, the TGI in the assay with HOP-62 NSCLC is > 100 µM.
For the compound `CC(C)(C)OC(=O)N1N=NC2C3OC(CC3=O)C21` (stereo not given), the TGI in the assay on SK-MEL-2 melanoma, in the assay with SNB-19 CNS, in the assay on LOX IMVI melanoma, in the assay with ACHN renal, with 786-0 renal and with M14 melanoma was > 100 µM each time. In addition, the TGI in the assay on HOP-62 NSCLC was > 100 µM.
`COc1ccc2c(c1)OCCC1=C2SCC2(C)CCN=C12` (stereo not given): the TGI in the assay with RXF 393 renal, in the assay on SNB-19 CNS, in the assay with LOX IMVI melanoma, in the assay on 786-0 renal, in the assay with M14 melanoma and with HOP-62 NSCLC was > 100 µM each time.
Regarding `CN(C)CCNc1nc(-c2cccs2)cc(-c2cccs2)n1`, the TGI stood at 28.6 µM in the assay on RXF 393 renal; 32.9 µM in the assay on SK-MEL-2 melanoma; 22.7 µM in the assay with LOX IMVI melanoma; 30.4 µM in the assay on 786-0 renal; 27 µM with M14 melanoma; 40.7 µM in the assay with HOP-62 NSCLC.
For `OCC(O)C(OC1OC(CO)C(O)C(O)C1O)c1nn(-c2ccccc2)c2nc3cc(Cl)ccc3nc12` (stereo not given), the TGI in the assay on RXF 393 renal, with SNB-19 CNS, in the assay on LOX IMVI melanoma, in the assay on ACHN renal, in the assay on 786-0 renal and in the assay with M14 melanoma was > 100 µM each time. Also, in the assay with HOP-62 NSCLC, the TGI was > 100 µM.
On to `Cc1ccc(NC(=O)CCC(=O)C(C#N)c2ccccc2)cc1C` (stereo not given), for which the TGI in the assay with SK-MEL-2 melanoma, in the assay on SNB-19 CNS, with LOX IMVI melanoma, in the assay with ACHN renal, in the assay with 786-0 renal and in the assay with M14 melanoma was > 100 µM in each case.
Consider `CC(=O)CC(=O)/C=C/c1cccs1`, for which the TGI in the assay on SK-MEL-2 melanoma, with SNB-19 CNS, in the assay with LOX IMVI melanoma, in the assay on ACHN renal, with 786-0 renal and in the assay on M14 melanoma was > 100 µM in each case. In addition, the TGI in the assay on HOP-62 NSCLC is > 100 µM.
For `CCOC(=O)NC(=O)c1c[nH]c(=O)[nH]c1=O`, the TGI in the assay with SK-MEL-2 melanoma, in the assay with SNB-19 CNS, with LOX IMVI melanoma, with ACHN renal, in the assay with 786-0 renal and in the assay with M14 melanoma was > 100 µM throughout. Moreover, the TGI in the assay with HOP-62 NSCLC is > 100 µM.
In the case of `Nc1nc(N)c(-c2ccccc2)c(CCC(=O)Nc2ccc(Cl)cc2)n1`, the TGI in the assay on SK-MEL-2 melanoma, in the assay with SNB-19 CNS, with ACHN renal, in the assay on 786-0 renal, in the assay on M14 melanoma and with HOP-62 NSCLC was > 100 µM each time.
Consider `CCOC(=O)/N=c1/nc(N(C)C)ss1`, for which the TGI with RXF 393 renal, in the assay with SK-MEL-2 melanoma, in the assay on SNB-19 CNS, with ACHN renal, with 786-0 renal and in the assay with M14 melanoma was > 100 µM throughout. Further, the TGI in the assay on HOP-62 NSCLC is > 100 µM.
On to `Cc1ccc(S(=O)OC23CC4CC(CC(C4)C2)C3)cc1` (stereo not given), for which the TGI in the assay on RXF 393 renal, in the assay on SNB-19 CNS, in the assay with LOX IMVI melanoma, in the assay on ACHN renal, with 786-0 renal and in the assay with M14 melanoma was > 100 µM throughout. The TGI in the assay with HOP-62 NSCLC is > 100 µM.
Regarding `CN(C)CC1CCCC/C1=N/OC(=O)c1ccc(Cl)c(Cl)c1` (stereo not given), the TGI in the assay with RXF 393 renal, in the assay on SK-MEL-2 melanoma, in the assay on LOX IMVI melanoma, in the assay with ACHN renal, with 786-0 renal and in the assay with M14 melanoma was > 100 µM each time. In addition, the TGI in the assay on HOP-62 NSCLC was > 100 µM.

Values taken from PubChem BioAssay (NCI).
